According to ChEMBL document CHEMBL1152404, “Structure-Activity Relationship of novel phenylacetic CXCR1 inhibitors” (Bioorg Med Chem Lett, 2009):

Tests used:
[1] = Cytotoxicity against of human polymorphonuclear leukocytes assessed as cell viability by trypan blue dye exclusion assay; parameters: concentration or dose not given beside the values; details: read-out: Activity
[2] = Cytotoxicity against mouse L1.2 cells assessed as cell viability by trypan blue dye exclusion assay; assay type: cell-based; parameters: concentration or dose not given beside the values; details: read-out: Activity

| SMILES | viability [1] [%] | viability [2] [%] |
| --- | --- | --- |
| O=C(O)Cc1ccccc1Nc1c(F)cccc1F | > 95 | > 95 |
| O=C(O)Cc1ccccc1Oc1ccccc1 | > 95 | > 95 |
| O=C(O)Cc1ccccc1Oc1ccccc1F | > 95 | > 95 |
| O=C(O)Cc1ccccc1Oc1ccccc1Cl | > 95 | > 95 |
| O=C(O)Cc1ccccc1Nc1ccccc1F | > 95 | > 95 |
| Cc1ccc(Cl)c(Nc2ccccc2CC(=O)O)c1Cl | > 95 | > 95 |
| CS(=O)(=O)NC(=O)Cc1ccccc1Oc1ccccc1F | > 95 | > 95 |
| CC(C(=O)NS(C)(=O)=O)c1ccccc1Nc1c(Cl)cccc1Cl (configuration not stated) | > 95 | > 95 |
| CC(C(=O)NC(C)(C)C)c1ccccc1Nc1c(Cl)cccc1Cl (configuration not stated) | > 95 | > 95 |
| CC(C(=O)NCCO)c1ccccc1Nc1c(Cl)cccc1Cl (configuration not stated) | > 95 | > 95 |
| Cc1ccccc1Nc1ccccc1CC(=O)O | > 95 | > 95 |
| CC(C(N)=O)c1ccccc1Nc1c(Cl)cccc1Cl (configuration not stated) | > 95 | > 95 |
| CC(C(=O)NCCC[N+](C)(C)C)c1ccccc1Nc1c(Cl)cccc1Cl (configuration not stated) | > 95 | > 95 |
| Cc1cccc(C)c1NC(=O)C(C)c1ccccc1Nc1c(Cl)cccc1Cl (configuration not stated) | > 95 | > 95 |
| O=C(O)Cc1cccc(C(=O)c2ccccc2)c1 | > 95 | > 95 |
| O=C(O)Cc1ccccc1Cc1c(Cl)cccc1Cl | > 95 | > 95 |
| CC(C(=O)NCCCN(C)C)c1ccccc1Nc1c(Cl)cccc1Cl (configuration not stated) | > 95 | > 95 |
| CC(C(=O)O)c1ccccc1Nc1c(Cl)cccc1Cl (configuration not stated) | > 95 | > 95 |
| O=C(O)Cc1ccccc1Nc1ccccc1Cl | > 95 | > 95 |
| O=C(O)Cc1ccccc1Nc1cc(Cl)ccc1Cl | > 95 | > 95 |
| O=C(O)Cc1ccccc1Nc1ccccc1 | > 95 | > 95 |
| CC(C)Cc1ccc([C@@H](C)C(=O)O)cc1 [(R)-IBUPROPHEN] | > 95 | > 95 |
| O=C(O)Cc1ccccc1Nc1c(Cl)cccc1Cl [DICLOFENAC] | > 95 | > 95 |
| CC(C)Cc1ccc(CC(=O)O)cc1 [IBUFENAC] | > 95 | > 95 |
| COc1ccc2c(c1)c(CC(=O)O)c(C)n2C(=O)c1ccc(Cl)cc1 [INDOMETHACIN] | > 95 | > 95 |
| Cc1ccc(C(=O)c2ccc(CC(=O)O)n2C)cc1 [TOLMETIN] | > 95 | > 95 |
